Source: EP3386957B1, “PROCESS FOR THE PURIFICATION OF 10-DEACETYL BACCATIN III” (RotaChrom Technológiai és Szolgálató Zártkörüen Müködö …, priority 2015, dated 2017)
Values after ≈ are worked out from the molar mass of the structure shown. Where two headings read alike, the source gives them in different places.

Tests used:
Type in all cases: physicochemical
[1] = Selectivity of CPC solvent systems for contaminants of 10-DAB III (contaminants identified by HPLC relative retention time)
Protocol: The HPLC methods used for the analysis: • 1. Isocratic method • Column: Dr Maisch ReproSil-Pur C18-AQ (150x4.0 mm, 3 um) • Column thermostat: 35 °C • Flow rate: 0.75 ml/min • Eluent: 28% acetonitrile, 72% water, 0.1% acetic acid • Detection wavelength: 230 +/- 5 nm • Injected volume: 10 ul • 2. Gradient method • Colum: Phenomenex Kinetex C18 (100x3.0 mm, 2.6 um) • Column thermostat: 35 °C • Flow rate: 0.7 ml/min • Eluent A: water + 0.1% acetic acid Eluent B: acetonitrile Gradient program: 0 min 20% B, 5 min: 30% B, 11 min 40% B, 13 min 40% B, 14 min 20% B, 18 min 20% B • Detection wavelength: 230 +/- 5 nm • Injected volume: 5 ul
Table 3: the selectivity matrix of the individual methods according to the invention

[2] = Solubility of 10-DAB III in solvents and biphasic solvent systems
Description: (§1) As such a degree of solubility may only be achieved in a mixture of MIBK, acetone and water after heating, after cooling and shaking the substance crystalized (Margraff, 1995). The partition coefficient of 10-DAB III is around 6. […] The chromatogram according to Figure 3 presents a product purified in such a solvent system.
(§2) It was also surprising to experience that the biphasic system formed by the mixture of methyl tert-butyl ether (hereinafter: MTBE), acetone and water is also suitable for dissolving 10-DAB III, if their volumetric mixing ratio is approximately 4:4:3, in which the upper phase is a mixture of 40% MTBE, 50% acetone and 10% water, and the lower phase is a mixture of 40% water, 50% acetone and 10% MTBE. 10-DAB III is insoluble separately in MTBE and in water, but it dissolves in both phases of the aforementioned ternary solvent mixture, solubility in the upper phase is 50 mg/ml. […] Such contaminants on the basis of the HPLC method below are the RRT=0.68 and the RRT=0.87 contaminants.

[3] = Partition coefficient in biphasic CPC solvent systems
Description: as §1, §2
Liquid chromatography or extraction performed with a chlorinated hydrocarbon is usually used for the separation of chlorophyll and related compounds. […] A solvent system that may be used for this may be the dichloromethane, methanol and water mixture at an approximate volumetric ratio of 3:4:3. In this solvent system the partition coefficient of 10-DAB III is 0.95, while that of the aforementioned problematic contaminants is around 0.4-0.5.

SMILES	selectivity ([1]; CPC solvent mixture DCM/MeOH/water, Table 3)	selectivity ([1]; CPC solvent mixture MEK/water, isocratic HPLC method)	selectivity ([1]; CPC solvent mixture MEK/water, Table 3)	selectivity ([1]; CPC solvent mixture MTBE/acetone/water, isocratic HPLC method)	selectivity ([1]; prior-art system: mixture of methyl isobutyl ketone, acetone and water)	solubility ([2]; organic solvent or mixture, MTBE/acetone/water approximately 4:4:3, upper phase (40% MTBE, 50% acetone, 10% water), read-out: solubility in the upper phase)	solubility ([2]; separately in MEK or water)	solubility ([2]; separately in MTBE and in water)	solubility ([2]; upper phase of MEK/water biphasic system, organic solvent or mixture, MEK/water biphasic system, upper phase (MEK saturated with water), read-out: solubility in the upper phase)	partition coefficient ([3]; MEK/water biphasic system)	partition coefficient ([3]; MTBE/acetone/water approximately 4:4:3)	partition coefficient ([3]; dichloromethane, methanol and water approximately 3:4:3)
CC(=O)O[C@@]12CO[C@@H]1C[C@H](O)[C@@]1(CO)C(=O)[C@H](O)C3=C(C)[C@@H](O)C[C@@](O)([C@@H](OC(=O)c4ccccc4)[C@H]21)C3(C)C [RRT=0.48, 19-OH-10-deacetylbaccatin III]	+	great selectivity	+++ (high selectivity)	great selectivity	excellent selectivity							
CC(=O)O[C@@]12CO[C@@H]1C[C@H](O)[C@@]1(C)C(=O)[C@H](O)C3=C(C)[C@@H](O)C[C@@](O)([C@@H](OC(=O)c4ccccc4)[C@H]21)C3(C)C [10-DAB III, 10-deacetylbaccatin III]						50 mg/mL (≈ 91.8 mM)	does not dissolve well	insoluble	80 mg/mL (≈ 147 mM)	around 6	around 2	0.95
